The source of these data is ChEMBL document CHEMBL5252580, “Ionization and lipophilicity in nonpolar media mimicking the cell membrane interior” (Bioorg Med Chem, 2023).

Holding throughout (type): physicochemical
Data set [1] can be described thus: Lipophilicity, log D of the compound in toluene/water system at pH 7 by shake-flask assay based HPLC analysis. The following applies: buffer.
Data set [2] in a line: Lipophilicity, log P of the compound in octanol/water system by potentiometric titration method.
Data set [3] is described as follows: Lipophilicity, log D of the compound in octanol/water system at pH 7 by shake-flask assay based HPLC analysis.
Data set [4] is described as follows: Lipophilicity, log P of the compound in toluene/water system by potentiometric titration method. The following applies: buffer.
A short description of data set [5]: Lipophilicity, log D of the compound in toluene/water system at pH 7 by potentiometric titration method. The following applies: buffer.
Data set [6] can be described thus: Lipophilicity, log D of the compound in octanol/water system at pH 7 by potentiometric titration method.
Data set [7] can be described thus: Acidic ionization constant, pKa of the compound in water by potentiometric titration method.
The nature of data set [8]: Ionization constant, pKa of the compound in water in presence of 20 to 27.4% acetonitrile cosolvent by potentiometric titration method. The following applies: water with 20 to 27.4% acetonitrile cosolvent.
A short description of data set [9]: Ionization constant, pKa of the compound in water in presence of 30 to 35% acetonitrile cosolvent by potentiometric titration method. The following applies: water with 30 to 35% acetonitrile cosolvent.
The nature of data set [10]: Ionization constant, pKa of the compound in water in presence of 40 to 42.6% acetonitrile cosolvent by potentiometric titration method. The following applies: water with 40 to 42.6% acetonitrile cosolvent.
A short description of data set [11]: Basic ionization constant, pKa of the compound in water by potentiometric titration method.
Data set [12] is described as follows: Basic ionization constant, pKa of the compound in 100% acetonitrile by UV-vis spectrophotometric titration method.
Data set [13] in a line: Lipophilicity, log D of the compound assessed as retention index in nonpolar system in presence of 80% acetonitrile cosolvent by PLRP-S based RP-HPLC analysis.
Data set [14] can be described thus: Ionization constant, pKa of the compound in water by potentiometric titration method.
Data set [15] can be described thus: Ionization constant, pKa of the compound in water in presence of 80% acetonitrile cosolvent by PLRP-S based RP-HPLC analysis. The following applies: water with 80% acetonitrile cosolvent.
Setting [16] is: 100% acetonitrile, read-out: pKa.

Structures are written as SMILES.

As to `CCCCC(=O)N(Cc1ccc(-c2ccccc2-c2nnn[nH]2)cc1)[C@H](C(=O)O)C(C)C`, the logD (commonly lipophilicity at a set pH, counting ionised and neutral species) in data set [1] was < -2.5; in data set [3], -1.32; in [5] it was < 0; in [6] it was < 0. Moreover, the logP – broadly, a log measure of how a compound divides between an organic and an aqueous phase – in data set [2] (read-out: logP) is 3.2; in [4], 0.3.
`Nc1cccc(O)c1` [3-AMINOPHENOL]: the pH-dependent lipophilicity (logD) is -1.77 in data set [1], -0.11 in [3] and 0.1 in data set [6]. Moreover, the pKa was determined as 9.82 in data set [7]; 4.13 in data set [8]; 4.07 in data set [9]; 4.01 in data set [10]; 4.36 in [11]; 10.4 in data set [12] (setting [16]). For the same compound, the logP in data set [2] (read-out: logP) was 0.1. In addition, the Retention_index in [13] is -0.65.
For the compound `NS(=O)(=O)c1cc2c(cc1Cl)NCNS2(=O)=O` [HYDROCHLOROTHIAZIDE], in data set [14], the pKa came to 8.68.
With `CC(C)Cc1ccc(C(C)C(=O)O)cc1` (centres undefined) [IBUPROFEN], the logD is -0.43 in data set [1], 1.07 in data set [3], 0.2 in data set [5] and 1.3 in data set [6]. For the same compound, the logP in [4] turned out to be 3.1.
Regarding `Cc1cccc(C)c1NC(=O)C1CCCCN1C` (centres undefined) [MEPIVACAINE], the pH-dependent lipophilicity (logD) was determined as 0.89 in data set [1], 0.92 in data set [3], 0.8 in data set [5] and 1.1 in [6]. For the same compound, the logP in data set [2] is listed as 3.3; in data set [4], 1.4. The pKa stood at 7.88 in [8]; 7.78 in data set [9]; 7.74 in data set [10]; 16.62 in data set [12]; 7.83 in data set [14]; 5.9 in [15]. The Retention_index in [13] was 0.22.
Turning to `CCn1cc(C(=O)O)c(=O)c2ccc(C)nc21` [NALIDIXIC ACID], the logD in data set [1] is -0.12; in [3] it was 0.35. Also, the pKa in [7] was determined as 6.25; in data set [8] it was 6.63; in data set [9], 7.1; in data set [10], 7.56; in [12] (setting [16]), 6.17. Besides, in data set [13], the Retention_index was -0.15.
